Experiments:
[1] = test system: rats; conditions: in 0.5% Cremophor in aqueous solution; cited from earlier work
[2] = test system: female rats; conditions: cited from earlier work
[3] = molecular target: MEK2 (Homo sapiens, UniProt P36507); conditions: cited from earlier work
[4] = Calculated concentrations based on ventricle and CSF volumes; assay type: in vivo; conditions: dog; for Cmax: Beagle, icv or intrathecal, ventricle volume 2 ml; for Cmax CSF: CSF volume 20 mL
[5] = ambient conditions
Experimental: A solution that remains intact to an extent acceptable for pharmaceutical use for the time required between preparing the solution and administering it to the patient (for example 2 hours, for example 1 hour) is considered herein to be “stable”.

[6] = Experimental: 0.79 g Cremophor EL (Trade Mark) was weighed in an Erlenmeyer flask, and 60 mL aCSF (obtained from Tocris Pharma) was added. […] The solution was then placed in an ultrasonic bath maintained at 25-28° C. for 20 minutes. […] The solution was ultrasonicated for another 25 minutes.
The mixture was then filtered using a Millipore Millex-LG, PTFE, 0.20 μm filter (SLLG025SS).
500 μL Cremophor EL was pipetted into an Erlenmeyer flask containing 40 mL in-house prepared aCSF. […] An additional 10 minutes of ultrasonication was carried out to ensure complete dissolution.

Sequence of MEK2 (P36507 whole entry, species assumed): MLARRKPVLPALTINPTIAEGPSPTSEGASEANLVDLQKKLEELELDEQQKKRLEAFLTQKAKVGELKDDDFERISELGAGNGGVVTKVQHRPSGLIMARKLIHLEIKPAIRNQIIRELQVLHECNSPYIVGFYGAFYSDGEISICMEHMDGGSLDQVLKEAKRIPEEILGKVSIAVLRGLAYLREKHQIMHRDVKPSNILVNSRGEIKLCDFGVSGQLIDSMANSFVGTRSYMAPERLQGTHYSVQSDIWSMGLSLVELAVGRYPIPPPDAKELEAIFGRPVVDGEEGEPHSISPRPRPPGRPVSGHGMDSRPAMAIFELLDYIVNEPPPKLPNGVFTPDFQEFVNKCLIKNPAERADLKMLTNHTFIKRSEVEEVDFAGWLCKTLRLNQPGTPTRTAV

N#CC(=C(/N)Sc1ccccc1N)/C(C#N)=C(\N)Sc1ccccc1N [Example U0126, 1,4-Diamino-2,3-dicyano-1,4-bis(o-aminophenylmercapto) butadiene]
maximum tolerated intracerebroventricular (ICV) concentration in vivo [1]: 10 µM | long-term neurologic outcome after stroke [2]: improves long-term neurologic outcome | inhibitor of MEK2 [3]: inhibitor | Cmax ([4]; 20 μM/0.5 mL): 5 µM | Cmax ([4]; 100 μM/0.5 mL): 25 µM | Cmax ([4]; 200 μM/0.5 mL): 50 µM | Cmax CSF ([4]; 20 μM/0.5 mL): 0.5 µM | Cmax CSF ([4]; 100 μM/0.5 mL): 2.5 µM | Cmax CSF ([4]; 200 μM/0.5 mL): 5 µM | time solid form remains intact [5]: several decades | measured content of U0126 ([6]; Example 2, clear solution after 0.20 μm PTFE filtration, 0.5% v/v Cremophor EL in aCSF): 68 µM | U0126 content of filtered samples ([6]; Example 3, 0.5% Cremophor EL in aCSF, pH 8.6, after 0.20 μm PTFE filtration): 85 to 99 µM

Source: patent US20260216119A1, “NOVEL SOLUTIONS” (priority 2022, published 2026)
